Experimental findings from PubChem BioAssay (NCI) are described below.

Some test systems named below: HCC-2998 colon; A549 NSCLC; NCI-H226 lung; HT29 colon; TK-10 renal; SF-268 CNS; HCT-116 colon; NCI-H23 lung.
Holding throughout (experiment): DTP human tumour cell line panel, 48 h

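Cells were grown in 96-well plates and exposed to each compound for 48 hours at five concentrations; endpoints were interpolated linearly between bracketing concentrations, or set to the highest concentration if not reached. At the GI50, growth is halved. TGI denotes the concentration required for complete inhibition of growth.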 Where only a bound is given, the exact number is not on record here.

With `COc1ccc(C(CC(=O)c2ccccc2)C(C(=O)c2ccccc2)C(c2ccc(OC)cc2)C2C(=O)NC(=S)NC2=O)cc1` (centres undefined), the GI50 (usually the concentration that inhibits growth by half) in the assay on HCC-2998 colon was 2.46 µM; in the assay on A549 NSCLC it was 8.96 µM; with NCI-H226 lung, 38.4 µM; in the assay with HT29 colon, 21.3 µM; in the assay on TK-10 renal, 18.7 µM; in the assay with SF-268 CNS, 9.99 µM. The GI50 in the assay with HCT-116 colon was 15.4 µM; in the assay with NCI-H23 lung, 14.3 µM. Moreover, the TGI (in general, the concentration giving total growth inhibition) in the assay with HCC-2998 colon was 16.6 µM; in the assay on A549 NSCLC it was 75.7 µM; in the assay with NCI-H226 lung, above 100 µM; with HT29 colon, above 100 µM; in the assay on TK-10 renal, above 100 µM; in the assay on SF-268 CNS, 55.5 µM. For the same compound, the total growth inhibition concentration (TGI) is 37.4 µM with HCT-116 colon and 46.6 µM with NCI-H23 lung.

In the case of `CCOC(=O)/C=C/C(=O)[C@H](CC(C)C)NC(=O)[C@H](Cc1ccccc1)NC(=O)OCc1ccccc1`, the GI50 was 15.6 µM with HCC-2998 colon; 20.7 µM with A549 NSCLC; 26.4 µM in the assay with NCI-H226 lung; 5.44 µM in the assay on HT29 colon; 1.87 µM with TK-10 renal; 3.3 µM in the assay with SF-268 CNS. Besides, the GI50 in the assay with HCT-116 colon was 2.87 µM; in the assay with NCI-H23 lung, 11.3 µM. Moreover, the TGI amounted to 30.1 µM with HCC-2998 colon; 39.6 µM in the assay with A549 NSCLC; 60.4 µM in the assay with NCI-H226 lung; 38.6 µM with HT29 colon; 3.81 µM in the assay on TK-10 renal; 13.3 µM in the assay with SF-268 CNS. Further, the total growth inhibition concentration (TGI) with HCT-116 colon was determined as 9.43 µM; in the assay on NCI-H23 lung, 32.8 µM.

Regarding `CCS(=O)(=O)c1ccc(OC)c(Nc2ncc(-c3ccccc3Cl)o2)c1`, the GI50 with HCC-2998 colon is 18.1 µM; in the assay on A549 NSCLC it was 10 µM; in the assay on NCI-H226 lung, 7.72 µM; in the assay with HT29 colon, 8.01 µM; in the assay with TK-10 renal, 16.6 µM; with SF-268 CNS, 11.7 µM. In addition, the GI50 with HCT-116 colon is 10.1 µM; in the assay on NCI-H23 lung it was 7.89 µM. Also, the TGI was above 25 µM in the assay on HCC-2998 colon; above 25 µM in the assay with A549 NSCLC; above 25 µM with NCI-H226 lung; above 20.5 µM with HT29 colon; above 25 µM with TK-10 renal; above 25 µM in the assay with SF-268 CNS. The concentration for total growth inhibition (TGI) in the assay on HCT-116 colon and in the assay with NCI-H23 lung was above 25 µM each time.

With `CC(=O)c1cc(C(=O)c2ccc3c(c2)Sc2ccccc2N3)c2c(C)cccn12`, the GI50 in the assay with HCC-2998 colon was 1.65 µM; in the assay on A549 NSCLC, 0.265 µM; in the assay on NCI-H226 lung it was 1.95 µM; with HT29 colon, 0.272 µM; in the assay on TK-10 renal, 4.73 µM; with SF-268 CNS, 0.915 µM. The figures for the GI50 in the assay with HCT-116 colon and with NCI-H23 lung were 0.27 µM and 0.611 µM, respectively. Besides, the TGI was above 100 µM in the assay on HCC-2998 colon; 40.4 µM in the assay on A549 NSCLC; above 52.3 µM in the assay on NCI-H226 lung; 1.8 µM with HT29 colon; above 100 µM with TK-10 renal; above 100 µM in the assay with SF-268 CNS. For the same compound, the values for the concentration for total growth inhibition (TGI) in the assay on HCT-116 colon and in the assay on NCI-H23 lung were 10.5 µM and above 100 µM, respectively.

Take `CN1CCN(Cc2ccc3c(NNC(=O)c4ccccc4)nc4cc(F)ccc4n23)CC1`: the GI50 in the assay with HCC-2998 colon is 0.526 µM; in the assay on A549 NSCLC, 0.473 µM; with NCI-H226 lung it was 0.442 µM; with HT29 colon, 0.587 µM; with TK-10 renal, 0.252 µM; in the assay on SF-268 CNS, 0.454 µM. Also, the GI50 is 0.316 µM in the assay with HCT-116 colon and 0.989 µM in the assay with NCI-H23 lung. The total growth inhibition concentration (TGI) in the assay with HCC-2998 colon was 49.6 µM; in the assay on A549 NSCLC, 21.8 µM; with NCI-H226 lung, 9.71 µM; in the assay with HT29 colon, above 49 µM; in the assay with TK-10 renal, above 92.5 µM; in the assay with SF-268 CNS, above 100 µM. Also, the TGI came out at 16 µM in the assay with HCT-116 colon and 29.6 µM with NCI-H23 lung.

As for `O=c1oc2ccc(-c3ccc(F)cc3F)cc2c(=O)n1-c1ccc(Cl)c(C(F)(F)F)c1`, the GI50 in the assay with HCC-2998 colon is 2.41 µM; with A549 NSCLC, 3.33 µM; in the assay on NCI-H226 lung it was 2.03 µM; with HT29 colon it was 3.07 µM; in the assay with TK-10 renal, 4.41 µM; in the assay with SF-268 CNS, 2.51 µM. Further, the GI50 with HCT-116 colon is 1.75 µM; with NCI-H23 lung it was 1.83 µM. Moreover, the total growth inhibition concentration (TGI) was 6.03 µM in the assay on HCC-2998 colon; above 100 µM with A549 NSCLC; 6.11 µM in the assay on NCI-H226 lung; above 100 µM in the assay with HT29 colon; 19.1 µM in the assay on TK-10 renal; 9.13 µM in the assay on SF-268 CNS. Moreover, the TGI was determined as 3.49 µM in the assay on HCT-116 colon and 4.59 µM in the assay with NCI-H23 lung.

`Nc1ccccc1C#C/C=C\C#Cc1c(F)c(F)c(F)c(F)c1F`: the GI50 with HCC-2998 colon was 19.4 µM; with A549 NSCLC it was 11.6 µM; with NCI-H226 lung, 11.3 µM; in the assay on HT29 colon it was 19.7 µM; with TK-10 renal, 20.1 µM; with SF-268 CNS, 14.1 µM. Besides, the GI50 was 16 µM in the assay with HCT-116 colon and 14.7 µM with NCI-H23 lung. Further, the concentration for total growth inhibition (TGI) was 37.6 µM in the assay on HCC-2998 colon; 25.5 µM with A549 NSCLC; 26.7 µM in the assay with NCI-H226 lung; 50.7 µM in the assay with HT29 colon; 40.7 µM with TK-10 renal; 50.9 µM in the assay with SF-268 CNS. The TGI with HCT-116 colon amounted to 31.1 µM; in the assay on NCI-H23 lung, 32.4 µM.

Turning to `Cc1ccc(-c2nc(-c3cn(C)c4ncccc34)cs2)cc1`, the GI50 was 8.96 µM in the assay on HCC-2998 colon; 5.62 µM with A549 NSCLC; 4.35 µM with NCI-H226 lung; 2.32 µM with HT29 colon; 6.74 µM in the assay on TK-10 renal; 7.83 µM in the assay on SF-268 CNS. Moreover, the GI50 in the assay on HCT-116 colon is 3.11 µM; in the assay with NCI-H23 lung it was 7.12 µM. Moreover, the concentration for total growth inhibition (TGI) with HCC-2998 colon turned out to be 22.8 µM; in the assay on A549 NSCLC, 21.3 µM; with NCI-H226 lung, 24.7 µM; in the assay on HT29 colon it was 8.51 µM; in the assay on TK-10 renal, 21.6 µM; with SF-268 CNS, 39.2 µM. The TGI in the assay on HCT-116 colon was 12.3 µM; with NCI-H23 lung, 31.3 µM.

In the case of `C[C@@H]1COCCN1c1cc(C2([S@@](C)(=N)=O)CC2)nc(-c2ccnc3[nH]ccc23)n1`, the GI50 is 4.69 µM in the assay with HCC-2998 colon; 4.27 µM in the assay with A549 NSCLC; 4.26 µM in the assay on NCI-H226 lung; 6.41 µM in the assay on HT29 colon; 6.71 µM in the assay with TK-10 renal; 9.66 µM in the assay with SF-268 CNS. Besides, the figures for the GI50 in the assay with HCT-116 colon and in the assay on NCI-H23 lung were 7.38 µM and 3.3 µM, respectively. The total growth inhibition concentration (TGI) was above 100 µM in the assay with HCC-2998 colon; above 100 µM in the assay with A549 NSCLC; 98.7 µM in the assay on NCI-H226 lung; above 100 µM in the assay with HT29 colon; above 71.9 µM in the assay with TK-10 renal; above 100 µM with SF-268 CNS. Moreover, the TGI in the assay with HCT-116 colon was above 100 µM; in the assay with NCI-H23 lung it was 45.2 µM.
